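Abbreviation: GI50, concentration required for 50% inhibition of growth. At the TGI there is no net growth.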
Experiments:
Assay in all cases: NCI tumour cell line growth inhibition, 384-well format
A498 renal = test system: A498 renal
BT-549 breast = test system: BT-549 breast
DU-145 prostate = test system: DU-145 prostate
HCT-116 colon = test system: HCT-116 colon
HL-60(TB) leukemia = test system: HL-60(TB) leukemia
HS 578T breast = test system: HS 578T breast
IGROV1 ovarian = test system: IGROV1 ovarian
MCF7 breast = test system: MCF7 breast
NCI-H322M lung = test system: NCI-H322M lung
NCI/ADR-RES ovarian = test system: NCI/ADR-RES ovarian
OVCAR-5 ovarian = test system: OVCAR-5 ovarian
SNB-75 CNS = test system: SNB-75 CNS
TK-10 renal = test system: TK-10 renal

Cn1c(Nc2ccc(C(F)(F)F)cc2)nc2cc(Oc3ccnc(-c4ncc(C(F)(F)F)[nH]4)c3)ccc21
TGI (A498 renal): 12.9 µM
GI50 (BT-549 breast): 0.182 µM
TGI (BT-549 breast): 11.3 µM
GI50 (DU-145 prostate): 0.0352 µM
TGI (DU-145 prostate): 13.6 µM
GI50 (HCT-116 colon): 0.0625 µM
TGI (HCT-116 colon): 3.55 µM
GI50 (HL-60(TB) leukemia): 0.0386 µM
TGI (HL-60(TB) leukemia): 1.07 µM
GI50 (HS 578T breast): 0.0391 µM
TGI (HS 578T breast): 6.25 µM
GI50 (IGROV1 ovarian): 0.041 µM
TGI (IGROV1 ovarian): 11.2 µM
GI50 (MCF7 breast): 1.59 µM
TGI (MCF7 breast): 6.67 µM
GI50 (NCI-H322M lung): 0.106 µM
TGI (NCI-H322M lung): 12.6 µM
GI50 (NCI/ADR-RES ovarian): 0.567 µM
TGI (NCI/ADR-RES ovarian): 2.84 µM
GI50 (OVCAR-5 ovarian): 1.43 µM
TGI (OVCAR-5 ovarian): 13.1 µM
GI50 (SNB-75 CNS): 0.0711 µM
TGI (SNB-75 CNS): 13 µM
GI50 (TK-10 renal): 0.0896 µM
TGI (TK-10 renal): 11.8 µM

CN1CC[C@@H](c2c(O)cc(O)c3c(=O)cc(-c4ccc(C(F)(F)F)cc4Cl)oc23)[C@@H]1CO
GI50 (A498 renal): 11.8 µM
TGI (A498 renal): 24.2 µM
GI50 (BT-549 breast): 14.6 µM
TGI (BT-549 breast): 27.8 µM
GI50 (DU-145 prostate): 15.5 µM
TGI (DU-145 prostate): 29.3 µM
GI50 (HCT-116 colon): 12.4 µM
TGI (HCT-116 colon): 25.4 µM
GI50 (HL-60(TB) leukemia): 9.56 µM
TGI (HL-60(TB) leukemia): 21.9 µM
GI50 (HS 578T breast): 13.4 µM
TGI (HS 578T breast): 26.3 µM
GI50 (IGROV1 ovarian): 12 µM
TGI (IGROV1 ovarian): 25.7 µM
GI50 (MCF7 breast): 14.7 µM
TGI (MCF7 breast): 28.2 µM
GI50 (NCI-H322M lung): 15.5 µM
TGI (NCI-H322M lung): 29.2 µM
GI50 (NCI/ADR-RES ovarian): 17.7 µM
TGI (NCI/ADR-RES ovarian): 35.9 µM
GI50 (OVCAR-5 ovarian): 16.5 µM
TGI (OVCAR-5 ovarian): 37.3 µM
GI50 (SNB-75 CNS): 12.6 µM
TGI (SNB-75 CNS): 25.2 µM
GI50 (TK-10 renal): 14.2 µM
TGI (TK-10 renal): 32.3 µM
